# Read-outs that look alike come from different tables or passages of the source.
# Assays:
# Assay type in all cases: in vivo
# [1] = tested on: Blumeria (Erysiphe) graminis DC. f.sp. tritici E. Marchal; assay: Foliar systemicity test, wheat powdery mildew (band application on leaf); conditions: typically 400 ppm
# From the text: Wheat Powdery Mildew (WPM): HOST: Wheat (Triticum aestivum L.) variety Kanzler PATHOGEN: Blumeria (Erysiphe) graminis DC. f.sp. tritici E. Marchal
# • 1. Wheat seed (8/pot) is planted in 8 cm diameter plastic pots in the greenhouse. • 2. When the primary leaf is fully expanded, the plants are cut back to four in each pot of which two are marked with a permanent marker 5 cm below the leaf tip on the upper leaf surface. Thus there are two band-treated and two untreated plants in each pot. • 3. A pipette is used to apply 5 µl of the formulated compound in a band on the lower leaf surface opposite the mark. The application band should cover the whole leaf width. After application, the plants are not moved until the bands are dry (half an hour or so later). • 4. After treated plants have dried, they are moved to the greenhouse and kept there for 2 days to allow for movement of the compounds. The plants are maintained with bottom watering. • 5. Two days after application, the plants are inoculated by dusting them with powdery mildew conidia in the greenhouse. Evaluations are typically made 7 - 8 days after inoculation.
# Three types of compound movement are assessed by evaluating disease in three areas of each band-treated leaf. Translaminar movement: The percent disease area is assessed for the translaminar band area (marked area of the upper leaf surface directly opposite where band was applied on the lower leaf surface; width of band approximately 5 mm). Translaminar disease control is then calculated using the following formula: % disease control = 100 -(% disease in treated plants)/(% disease in untreated plants)x 100 [formula]
# Distal movement and proximal movement: The distal and proximal disease-free zones on the upper leaf surface are measured in mm. The distal direction is from the band toward the leaf apex and the proximal direction is from the band toward the leaf base. The percent of the disease-free zone relative to the entire distance between the band and leaf apex or base is calculated. If disease is noticeably lighter in the distal or proximal area this is also noted.
# • 1. […]
# [2] = tested on: Blumeria (Erysiphe) graminis DC. f.sp. hordei E. Marchal; assay: Zero day protectant test, Barley Powdery Mildew (BPM); conditions: barley variety Golden Promise, 0 day protectant test, side-by-side, technical material in 0.5% acetone 0.05% Tween 20 water
# From the text: • (a) Wheat Powdery Mildew (WPM): HOST: Wheat (Triticum aestivum L.) variety Kanzler PATHOGEN: Blumeria (Erysiphe) graminis DC. f.sp. tritici E. Marchal • (b) Barley Powdery Mildew (BPM): HOST: Barley (Hordeum vulgare L.) variety Golden Promise PATHOGEN: Blumeria (Erysiphe) graminis DC. f.sp. hordei E. Marchal
# This test is a zero day protectant test for control of wheat and barley powdery mildews. • 1. Wheat or barley seed (approximately 8-10/pot) is planted in 6 cm diameter plastic pots and maintained in the greenhouse. • 2. When the primary leaf is fully expanded, formulated test compounds are sprayed with a single nozzle overhead track sprayer at a rate of 200 l/ha. Plants are then allowed to air-dry. • 3. Inoculation follows about three hours after compound application. Plants are set up on greenhouse benches with bottom watering mats and inoculated by dusting them with conidia from powdery mildew infected plants (stock cultures at an age of 10-14 days). • 4. Disease on the primary leaf as percent leaf area with disease symptoms/signs is evaluated about 7 days after inoculation. The tips and bases of the leaves are excluded from the evaluation. Percent disease control is then calculated by the following formula: % disease control = 100 -(% infection in treated plants)/(% infection in untreated plants)x 100 [formula]
# (§1) • 1. Technical compounds are formulated in a solvent/surfactant system consisting of […] acetone and 0.05% Tween 20 in deionized water. Compounds are dissolved in acetone prior to addition of the water; the Tween 20 can be added through either the acetone or the water. Dilutions are made using the solvent/surfactant system. Test compounds are typically tested over a range of concentrations covering several orders of magnitude and then ED values are calculated for comparison of compounds. Formulated compounds are prepared using deionized water. • 2. Two kinds of controls are included: • Plants treated with the solvent/surfactant solution and inoculated (Solvent Blank). • Untreated plants which are inoculated (Inoculated Control).
# Compounds applied as technical material formulated in 0.5% acetone 0.05% Tween 20 water
# [3] = tested on: Blumeria (Erysiphe) graminis DC. f.sp. tritici E. Marchal; assay: Curative and residual control test, Wheat Powdery Mildew (WPM); conditions: read-out: Disease control (% efficacy)
# From the text: • (a) Wheat Powdery Mildew (WPM): HOST: Wheat (Triticum aestivum L.) variety Kanzler PATHOGEN: Blumeria (Erysiphe) graminis DC. f.sp. tritici E. Marchal • (b) Cucumber Powdery Mildew (QPM): HOST: Cucumber (Cucumis sativus L.) variety Bush pickle PATHOGEN: Erysiphe cichoracearum DC
# This test procedure is for curative and residual control of powdery mildew diseases. • 1. Wheat seed (approximately 8-10/pot) or cucumber seed (1 seed / pot) is planted in 6 cm diameter plastic pots and maintained in the greenhouse. • 2. When the primary leaf (wheat) or the cotyledons (cucumber) is/are fully expanded, formulated test compounds are sprayed with a single nozzle overhead track sprayer at a rate of 200 l/ha. Plants are then allowed to air-dry. • 3. Inoculation precedes treatment by 2 or 3 days in the case of curative evaluations and follows treatment by 3 or 4 days in case of residual evaluations. For inoculation, plants are set up on greenhouse benches with bottom watering mats and inoculated by dusting them with conidia from powdery mildew infected plants (stock cultures at an age of 10-14 days). Between inoculation and treatment for curative evaluations and between treatment and inoculation for residual evaluations, plants are maintained in the greenhouse with bottom watering. • 4. Disease on the primary leaf (wheat) or on the cotyledons (cucumber) as percent leaf area with disease symptoms/signs is evaluated about 7 days after inoculation. In the case of wheat, the tips and bases of the leaves are excluded from the evaluation. Percent disease control is then calculated by the following formula: % disease control = 100 -(% infection in treated plants)/(% infection in untreated plants)x 100 [formula]
# as §1, with “system.” for “system. Test compounds are typically tested over a range of concentrations covering several orders of magnitude and then ED values are calculated for comparison of compounds.”
smiles,measurement,setting,value
"COc1cc(C)c(C(=O)c2c(C)cccc2OC)c(OC)c1OC [Example 1, 6,6'-dimethyl-2,2',3',4'-tetramethoxy-benzophenone]",Translaminar Activity ( % ),"[1]; % disease control in translaminar band area, wheat variety Kanzler",100%
same,Distal Movement (mm from band),"[1]; disease-free zone on wheat leaf (variety Kanzler) from band toward leaf apex, 5 µl band, inoculated 2 days after application",50 mm
same,Proximal Movement (mm from band),"[1]; disease-free zone on wheat leaf (variety Kanzler) from band toward leaf base, 5 µl band, inoculated 2 days after application",10 mm
same,ED90 (ppm),[2],6 ppm
same,percent disease control at 12.5 ppm,"[3]; 48 h, WPM 2 da C (2 day curative), 12,5 ppm, Test A",69%
same,Emax at 12.5 ppm,"[3]; 48 h, WPM 2 da C (2 day curative), 12,5 ppm, Test B",52%
same,percent disease control at 125 ppm,"[3]; 48 h, WPM 2 da C (2 day curative), 125 ppm, Test A",79%
same,Emax at 125 ppm,"[3]; 48 h, WPM 2 da C (2 day curative), 125 ppm, Test B",65%
same,percent disease control at 1250 ppm,"[3]; 48 h, WPM 2 da C (2 day curative), 1250 ppm, Test A",88%
same,Emax at 1250 ppm,"[3]; 48 h, WPM 2 da C (2 day curative), 1250 ppm, Test B",85%
same,percent disease control at 12.5 ppm,"[3]; 72 h, WPM 3 da R (3 day residual), 12,5 ppm, Test A",90%
same,Emax at 12.5 ppm,"[3]; 72 h, WPM 3 da R (3 day residual), 12,5 ppm, Test B",100%
same,percent disease control at 125 ppm,"[3]; 72 h, WPM 3 da R (3 day residual), 125 ppm, Test A",100%
same,percent disease control at 125 ppm,"[3]; 72 h, WPM 3 da R (3 day residual), 125 ppm, Test B",100%
same,percent disease control at 1250 ppm,"[3]; 72 h, WPM 3 da R (3 day residual), 1250 ppm, Test A",100%
same,percent disease control at 1250 ppm,"[3]; 72 h, WPM 3 da R (3 day residual), 1250 ppm, Test B",100%

# — EP0897904B1, “Fungicidal 2-methoxybenzophenones” (BASF AKTIENGESELLSCHAFT, priority 1997, dated 1999)
